Columns and labels:
PDE4B1 = biological target: T1, PDE4B1 (Homo sapiens, UniProt Q07343); test: Inhibition of PDE4B1 activity (SPA, [3H]cAMP); type: biochemical; settings: recombinant PDE4B1 expressed in SF21 cells; 0.5 pM [sic] cAMP; values given as bins; read-out: PDE4B1 inhibitory values measured as −logIC50 (converted)
T1 construct: made in house; host or cells: SF21 insect cells (baculovirus; pCR-Bac vector)
Protocol: The PDE4B1 (GB no. L20966) was a gift of Prof. M. Conti (Stanford University, USA). It was amplified from the original plasmid (pCMV5) via PCR with primers Rb18 (5′-[…]-3′) and Rb10 (5′-[…]-3′) and cloned into the pCR-Bac vector (Invitrogen, Groningen, NL).
The recombinant baculovirus was prepared by means of homologous recombination in SF9 insect cells. The expression plasmids were cotransfected with Baculo-Gold DNA (Pharmingen, Hamburg) using a standard protocol (Pharmingen, Hamburg). Wt virus-free recombinant virus supernatants were selected using plaque assay methods. After that, high-titre virus supernatants were prepared by amplifying 3 times. PDE4B1 was expressed in SF21 cells by infecting 2×10^6 cells/ml with an MOI (multiplicity of infection) between 1 and 10 in the serum-free medium Insect Express Sf9-S2 (PAA, Pasching, Austria). The cells were cultured at 28° C. for 48-72 hours, after which they were pelleted for 5-10 min at 1000×g and 4° C.
The SF21 insect cells were resuspended, at a concentration of approx. 10^7 cells/ml, in ice-cold (4° C.) homogenization buffer (20 mM Tris, pH 8.2, containing the following additions: 140 mM NaCl, 3.8 mM KCl, 1 mM EGTA, 1 mM MgCl2, 10 mM e-mercaptoethanol, 2 mM benzamidine, 0.4 mM Pefablock, 10 pM leupeptin, 10 pM pepstatin A, 5 pM trypsin inhibitor) and disrupted by ultrasonication. The homogenate was then centrifuged for 10 min at 1000, g and the supernatant was stored at −80° C. until subsequent use (see below). The protein content was determined by the Bradford method (BioRad, Munich) using BSA as the standard.
PDEB1 activities were measured in a 96-well platform using SPA (scintillation proximity assay) yttrium silicate beads (RPNQ1050 from GE Healthcare). In a first step the PDE activity operates hydrolysis of either [^3H] cAMP (substrate) into [^3H] 5′AMP. In a second step substrate and product are distinguished following addition of SPA yttrium silicate beads. Indeed, in the presence of zinc sulphate the linear [^3H] […] Close proximity of bound [^3H] […] The test volume is 100 pl and contains 20 mM Tris buffer (pH 7.4), 0.1 mg/ml of BSA, 5 mM Mg^2+, […] (including about 50,000 cpm of [3H]cAMP), 1 pl of the respective substance dilution in DMSO and sufficient recombinant PDE (1000, g supernatant, see above) to ensure that 10-20% of the cAMP is converted under the said experimental conditions. […] After a preincubation of 5 min at 37° C., the reaction is started by adding the substrate (cAMP) and the assays are incubated for a further 15 min; after that, they are stopped by adding SPA beads (50 pl). In accordance with the manufacturer's instructions, the SPA beads had previously been resuspended in water, but were then diluted 1:3 (v/v) in water; the diluted solution also contains 3 mM IBMX to ensure a complete PDE activity stop. After the beads have been sedimented (>30 min), the MTP's are analyzed in commercially available luminescence detection devices. The corresponding IC50 values of the compounds for the inhibition of PDE4B1 activity are determined from the concentration-effect curves by means of non-linear regression.

human PDE5 = biological target: T2, human PDE5 (Homo sapiens, UniProt O76074); test: Inhibition of PDE5 activity (SPA, [3H]cGMP, platelet lysate); type: biochemical; settings: PDE5 from human platelet lysate; values given as bins; read-out: PDE5A inhibitory values measured as −logIC50 (converted)
T2 construct: from tissue; host or cells: human platelets from fresh donor blood (10,000 g supernatant of sonicated platelets)
Protocol: As a source for human PDE5, platelets are used. For that purpose, 150 ml fresh blood from human donors anticoagulated with citrate [final concentration 0.3% (w/v)] is centrifuged at 200 g for 10 min to obtain the so-called platelet-rich-plasma (PRP) as a supernatant. 1/10 volume of ACD solution (85 mM Na3-citrate, 111 mM D-glucose, 71 mM citric acid, pH 4.4) is added to 9/10 volume of PRP. After centrifugation (1,400 g, 10 min) the cell pellet is resuspended in 3 ml homogenization buffer (NaCl 140 mM, KCl 3.8 mM, EGTA (ethylene glycol tetraacetic acid) 1 mM, MgCl2 1 mM, Tris-HCl 20 mM, beta-mercaptoethanol 1 mM, pH 8.2) plus protease-inhibitor mix giving rise to the final concentrations of 0.5 mM Pefablock (Roche), 10 μM Leupeptin, 5 μM Trypsininhibitor, 2 mM Benzamidin and 10 μM Pepstatin A. The suspension is sonified and thereafter centrifuged for 15 min at 10,000 g. The resulting supernatant (platelet lysate) is used for enzymatic testings.
PDE5 activities were measured in a 96-well platform using SPA (scintillation proximity assay) yttrium silicate beads (RPNQ1050 from GE Healthcare). In a first step the PDE activity operates hydrolysis of either [^3H] cGMP (substrate) into [^3H] 5′GMP. In a second step substrate and product are distinguished following addition of SPA yttrium silicate beads. Indeed, in the presence of zinc sulphate the linear [^3H] […] Close proximity of bound [^3H] […] The test volume is 100 pl and contains 20 mM Tris buffer (pH 7.4), 0.1 mg of BSA (bovine serum albumin)/ml, 5 mM Mg^2+, 1 μM motapizone (PDE3 Inhibitor), 10 nM PDE2 inhibitor 2-(3,4-dimethoxybenzyl)-7-[(1R,2R)-2-hydroxy-1-(2-phenylethyl)propyl]-5-methylimidazo[5,1-f][1,2,4]triazin-4(3H)-one, […] (cyclic guanosine monophosphate) (including about 50,000 cpm of [3H]cGMP as a tracer), 1 pl of the respective compound dilution in dimethylsulfoxide (DMSO) and sufficient PDE5-containing platelet lysat (10,000, g supernatant, see above) to ensure that 10-20 wt % of the cGMP is converted under the said experimental conditions. […] After a preincubation of 5 min at 37° C., the reaction is started by adding the substrate (cGMP) and the assay is incubated for a further 15 min; after that, it is stopped by adding SPA beads (50 pl). In accordance with the manufacturer's instructions, the SPA beads had previously been resuspended in water, but are then diluted 1:3 (v/v) in water; the diluted solution also contains 3 mM […]3-isobutyl-1-methylxanthine (IBMX) to ensure a complete PDE activity stop. After the beads have been sedimented (>30 min), the MTP's are analyzed in commercially available luminescence detection devices. The corresponding IC50 values of the compounds for the inhibition of PDE activity are determined from the concentration-effect curves by means of non-linear regression.

T1 sequence (Q07343 whole entry): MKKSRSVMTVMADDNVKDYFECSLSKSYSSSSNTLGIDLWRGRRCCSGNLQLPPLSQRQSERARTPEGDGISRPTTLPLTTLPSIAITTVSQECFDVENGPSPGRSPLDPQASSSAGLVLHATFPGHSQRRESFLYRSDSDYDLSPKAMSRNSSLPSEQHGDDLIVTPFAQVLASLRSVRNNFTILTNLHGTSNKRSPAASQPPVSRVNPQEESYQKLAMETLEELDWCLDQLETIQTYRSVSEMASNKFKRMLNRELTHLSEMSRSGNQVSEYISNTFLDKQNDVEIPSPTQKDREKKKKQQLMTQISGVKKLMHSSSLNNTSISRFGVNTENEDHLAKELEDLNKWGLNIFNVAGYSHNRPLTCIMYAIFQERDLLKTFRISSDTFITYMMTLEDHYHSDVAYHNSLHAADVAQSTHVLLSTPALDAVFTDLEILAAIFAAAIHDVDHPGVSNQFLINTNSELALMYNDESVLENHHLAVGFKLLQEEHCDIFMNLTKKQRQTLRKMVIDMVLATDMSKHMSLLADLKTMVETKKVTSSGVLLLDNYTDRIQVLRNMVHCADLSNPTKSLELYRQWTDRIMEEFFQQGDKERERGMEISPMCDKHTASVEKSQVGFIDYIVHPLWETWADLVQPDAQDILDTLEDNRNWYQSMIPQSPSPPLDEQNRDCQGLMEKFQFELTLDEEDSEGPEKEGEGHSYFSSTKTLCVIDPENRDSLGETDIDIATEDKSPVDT

Row | Structure (SMILES) | IC50 (PDE4B1) | IC50 (human PDE5)
1 | CCOc1cc2c(cc1OC)C(c1ccc(C(=O)N3CCC(n4c(=O)c5sc(-c6ccccc6)cc5n(Cc5csc(C)n5)c4=O)CC3)cc1)=N[C@@H]1CCSC[C@H]21 [Example 10, 3-[1-({4-[(4aR,10bR)-9-ethoxy-8-methoxy-3,4,4a,10b-tetrahydro-1H-thiopyrano[4,3-c]isoquinolin-6-yl]phenyl}carbonyl)piperidin-4-yl]-1-[(2-methyl-1,3-thiazol-4-yl)methyl]-6-phenylthieno[3,2-d]pyrimidine-2,4(1H,3H)-dione] | 1 to 10 nM | > 100 nM
2 | CCOc1cc2c(cc1OC)C(c1ccc(C(=O)N3CCC(n4c(=O)c5sc(-c6ccccc6)cc5n(Cc5nc(CSC)no5)c4=O)CC3)cc1)=N[C@@H]1CCSC[C@H]21 [Example 11, 3-[1-({4-[(4aR,10bR)-9-ethoxy-8-methoxy-3,4,4a,10b-tetrahydro-1H-thiopyrano[4,3-c]isoquinolin-6-yl]phenyl}carbonyl)piperidin-4-yl]-1-({3-[(methylsulfanyl)methyl]-1,2,4-oxadiazol-5-yl}methyl)-6-phenylthieno[3,2-d]pyrimidine-2,4(1H,3H)-dione] | 1 to 10 nM | < 10 nM
3 | CCOc1cc2c(cc1OC)C(c1ccc(C(=O)N3CCC(n4c(=O)c5sc(-c6ccccc6)cc5n(Cc5ncc(C)s5)c4=O)CC3)cc1)=N[C@@H]1CCSC[C@H]21 [Example 12, 3-[1-({4-[(4aR,10bR)-9-ethoxy-8-methoxy-3,4,4a,10b-tetrahydro-1H-thiopyrano[4,3-c]isoquinolin-6-yl]phenyl}carbonyl)piperidin-4-yl]-1-[(5-methyl-1,3-thiazol-2-yl)methyl]-6-phenylthieno[3,2-d]pyrimidine-2,4(1H,3H)-dione] | 1 to 10 nM | 10 to 100 nM
4 | CCOc1cc2c(cc1OC)C(c1ccc(C(=O)N3CCC(n4c(=O)c5sc(-c6ccccc6)cc5n(Cc5nc(C)cs5)c4=O)CC3)cc1)=N[C@@H]1CCSC[C@H]21 [Example 13, 3-[1-({4-[(4aR,10bR)-9-ethoxy-8-methoxy-3,4,4a,10b-tetrahydro-1H-thiopyrano[4,3-c]isoquinolin-6-yl]phenyl}carbonyl)piperidin-4-yl]-1-[(4-methyl-1,3-thiazol-2-yl)methyl]-6-phenylthieno[3,2-d]pyrimidine-2,4(1H,3H)-dione] | 1 to 10 nM | > 100 nM
5 | CCOc1cc2c(cc1OC)C(c1ccc(C(=O)N3CCC(n4c(=O)c5sc(-c6ccccc6)cc5n(Cc5nnn(CC)n5)c4=O)CC3)cc1)=N[C@@H]1CCSC[C@H]21 [Example 14, 3-[1-({4-[(4aR,10bR)-9-ethoxy-8-methoxy-3,4,4a,10b-tetrahydro-1H-thiopyrano[4,3-c]isoquinolin-6-yl]phenyl}carbonyl)piperidin-4-yl]-1-[(2-ethyl-2H-tetrazol-5-yl)methyl]-6-phenylthieno[3,2-d]pyrimidine-2,4(1H,3H)-dione] | > 10 nM | < 10 nM
6 | CCOc1cc2c(cc1OC)C(c1ccc(C(=O)N3CCC(n4c(=O)c5sc(-c6ccccc6)cc5n(Cc5nc(COC)no5)c4=O)CC3)cc1)=N[C@@H]1CCSC[C@H]21 [Example 15, 3-(1-{4-[(4aR,10bR)-9-ethoxy-8-methoxy-3,4,4a,10b-tetrahydro-1H-thiopyrano[4,3-c]isoquinolin-6-yl]benzoyl}piperidin-4-yl)-1-{[3-(methoxymethyl)-1,2,4-oxadiazol-5-yl]methyl}-6-phenylthieno[3,2-d]pyrimidine-2,4(1H,3H)-dione] | 1 to 10 nM | < 10 nM
7 | CCOc1cc2c(cc1OC)C(c1ccc(C(=O)N3CCC(n4c(=O)c5sc(-c6ccccc6)cc5n(Cc5coc(CC)n5)c4=O)CC3)cc1)=N[C@@H]1CCSC[C@H]21 [Example 16, 3-[1-({4-[(4aR,10bR)-9-ethoxy-8-methoxy-3,4,4a,10b-tetrahydro-1H-thiopyrano[4,3-c]isoquinolin-6-yl]phenyl}carbonyl)piperidin-4-yl]-1-[(2-ethyl-1,3-oxazol-4-yl)methyl]-6-phenylthieno[3,2-d]pyrimidine-2,4(1H,3H)-dione] | 1 to 10 nM | > 100 nM
8 | CCOc1cc2c(cc1OC)C(c1ccc(C(=O)N3CCC(n4c(=O)c5sc(-c6ccccc6)cc5n(Cc5cnn(CC)c5)c4=O)CC3)cc1)=N[C@@H]1CCSC[C@H]21 [Example 17, 3-[1-({4-[(4aR,10bR)-9-ethoxy-8-methoxy-3,4,4a,10b-tetrahydro-1H-thiopyrano[4,3-c]isoquinolin-6-yl]phenyl}carbonyl)piperidin-4-yl]-1-[(1-ethyl-1H-pyrazol-4-yl)methyl]-6-phenylthieno[3,2-d]pyrimidine-2,4(1H,3H)-dione] | 1 to 10 nM | > 100 nM
9 | CCOc1cc2c(cc1OC)C(c1ccc(C(=O)N3CCC(n4c(=O)c5sc(-c6ccccc6)cc5n(Cc5ccn(CC)n5)c4=O)CC3)cc1)=N[C@@H]1CCSC[C@H]21 [Example 18, 3-[1-({4-[(4aR,10bR)-9-ethoxy-8-methoxy-3,4,4a,10b-tetrahydro-1H-thiopyrano[4,3-c]isoquinolin-6-yl]phenyl}carbonyl)piperidin-4-yl]-1-[(1-ethyl-1H-pyrazol-3-yl)methyl]-6-phenylthieno[3,2-d]pyrimidine-2,4(1H,3H)-dione] | 1 to 10 nM | > 100 nM
